The test system of test [1] is array of over 9,000 human proteins. Kind of test: ProtoArray Human Protein Microarray binding assay. As for the experimental part:
(§1) PC3-M cells were pre-treated with 10 μM KBU2046 or with KBU2046-biotin for three days, and single cell motility assays conducted. Data are the mean±SEM of a single experiment of N≥24 cells; * denotes Student's 2-sided t-test p-value </=0.05 compared to control. […] PC3-M cells were labeled with 1 μM KBU2046-biotin+/−10 μM free KBU2046, followed by detection with FITC-streptavidin, and visualization by fluorescent microscopy (with equal exposure times). […] KBU2046-biotin was hybridized to ProtoArray® Human Protein Microarray's at 0.5 and 10 μM with and without 10 fold excess free KBU2046.
Protein Microarray Binding Assay. The ProtoArray® assay, using the Human Protein Microarray platform, was performed by Invitrogen.
First, the positive control used in protein arrays was staurosporine.

Test [2] concerns PC3-M cells. Kind of test: Boyden chamber cell invasion assay, PC3-M cells. The test is classed as cell-based, human. Conditions: 10 μM compound, 3 days. How it is done: Following the synthetic strategy outlined in FIG. 1a, 4′,5,7-trihydroxyisoflavone was used as the chemical scaffold. […] Note, demethylation within the cell cannot be predicted. Therefore, the loss of function was considered to be informative for methylated compounds. […] This adds further evidence of the importance of the C4′-hydroxyl for activity. […] For cell invasion, PC3-M cells were treated with 10 μM compound for a total of 3 days, and cell invasion assays were run at the end of the 3 day period, in the presence of compound. Values are the mean±SEM of three separate experiments, each run in replicates of N=3. […] Values are the mean±SEM of a single experiment, in replicates of N=4, repeated at least once (also N=4). […] The initial structure-activity relationship (SAR) data informed the second round of compound synthesis. […] Compared to 4′,5,7-trihydroxyisoflavone, KBU2046 is non-planar, lacks hydroxyl groups, and particularly those that mediate ER binding, is halogen-substituted, and has a distinctly different biological profile. These characteristics place KBU2046 in a chemically distinct class, compared to the starting compound.
Cell Invasion Assays. Boyden chamber cell invasion assays were performed as previously described^9, using either denatured collagen (BD Biosciences) or type IV human collagen (BD Biosciences), with the experiments repeated, each in N=4 replicates. In some experiments, as indicated, cells were transfected with an expression plasmid, using Lipofectamine 2000™ (Invitrogen), or with siRNA, using DharmaFect Duo (Thermo Scientific) and co-transfected with β-Galactosidase (Plasmid pCMV⋅SPORT-βgal; Life Technology).
The initial round of synthesis was designed to examine the removal of individual chemical fragments. In this manner, the importance of these functional groups in mediating efficacy (inhibition of cell invasion) could be determined. […] Initial assays were performed with PC3 and PC3-M cells. However, as these studies yielded similar findings, subsequent screening assays utilized only PC3-M cells. In designing chemical synthetic routes, priority was given to efficacy and toxicity parameters. […] These additional design features included removal of fragments that mediated genistein binding to the estrogen receptor (ER), as determined by ER-genistein 3D x-ray crystal structures (Protein Data Base IDs: 1X7R and 1X7J, for crystal structures of ERα and ERβ with bound genistein, respectively). These features also included removal of chemical fragments that are considered to increase susceptibility to rapid metabolism, for example by the cytochrome P450 (CYP) pathway. The final feature involved incorporation of chemical characteristics previously shown to be associated with effective drugs and which together generally impart more favorable pharmacologic properties, including those described by Lipinski et al. (Lipinski, C. A. et al., Adv Drug Deliv Rev 46, 3-26 (2001)).

In test [3] the test system is protein phosphorylation in PC3-M and PC3 cells. Nature of the test: KinomeView phospho-motif antibody screen. Format: cell-based, human. Conditions: 10 μM, 3 days, ±TGFβ. The text has this: Seeking to identify KBU2046's biological target(s), alternative methods were pursued. The KinomeView® panel of antibodies (Cell Signaling Technology, Inc.) detect established protein phosphorylation motifs, and were used to probe for KBU2046-induced changes in protein phosphorylation (FIG. 4a and FIG. 17). Phosphoprotein changes that met the following criteria were prioritized: were induced in cells in vitro as well as in tumors of treated mice (from FIG. 2a), that counteracted transforming growth factor β (TGFβ)-induced effects, and that were reproducible. TGFβ is ubiquitous in vivo, is known to increase PCa cell invasion (Huang, X. et al., Cancer Research 65, 3470-8 (2005)), and KBU2046's anti-invasion efficacy remains in spite of TGFβ-stimulated increases in cell invasion (FIG. 18). Genistein was evaluated under identical treatment conditions for comparison. […] In tumors of treated animals KBU2046 had this same effect on this 83 kDa protein band (green arrow in FIG. 17a). The high molecular selectivity of KBU2046 was further supported by its failure to inhibit over 400 different protein kinases and 20 phosphatases examined, in three different in vitro assay systems (see, Example 1).
Phospho-proteomic Analysis. The Kinoview™ and PhosphoScan™ assays were performed by Cell Signaling Technology Inc. […]

Test [4] has as its system human prostate cells (PC3, PC3-M, 1532NPTX, 1542NPTX, 1532CPTX, 1542CPTX). Particulars: nanomolar concentrations; cited from earlier work.
Test [5] relates to human PCa PC3-M cell orthotopic implants. Particulars: murine orthotopic model; cited from earlier work.
The target in the next test is T1, MKK4 (Homo sapiens, UniProt P45985, S257E/T261E).
T1 sequence (P45985 37-399 S257E/T261E): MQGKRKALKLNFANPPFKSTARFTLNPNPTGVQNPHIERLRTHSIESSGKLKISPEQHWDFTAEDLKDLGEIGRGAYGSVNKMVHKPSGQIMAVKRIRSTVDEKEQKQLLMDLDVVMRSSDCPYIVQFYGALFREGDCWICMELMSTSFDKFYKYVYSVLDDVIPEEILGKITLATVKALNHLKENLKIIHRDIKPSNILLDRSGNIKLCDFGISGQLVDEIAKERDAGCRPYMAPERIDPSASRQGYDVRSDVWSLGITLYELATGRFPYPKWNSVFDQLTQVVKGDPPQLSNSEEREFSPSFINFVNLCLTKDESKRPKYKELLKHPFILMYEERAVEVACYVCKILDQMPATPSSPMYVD
Particulars: low nanomolar concentrations; cited from earlier work.

The test system of test [6] is phosphorylation of p38 MAPK or of HSP27. Particulars: cited from earlier work.
Test [7] concerns matrix metalloproteinase 2 (MMP-2) expression. Particulars: prospective human trial; cited from earlier work.
In test [8] the test system is human prostate, breast, colon and lung cancer cells. Nature of the test: Single cell migration (motility) assay. Format: cell-based. Particulars: PC3-M cells, 10 μM, three days. The text has this: FIG. 1a is a schematic flow of probe synthesis and development strategy. […] Values are mean±SEM of a single experiment in replicates of N=4, with similar findings in multiple separate experiments (also N=4). […] Values are mean±SEM of a single experiment in replicates of N=24, with similar findings in a separate experiment (also N=24). *Denotes Student's t test P value <0.05, compared to controls. […] Values are mean±SEM from N>2 separate experiments, each in replicates of N=3. […] Values are the mean±SD number of total, CFU-GM, CFU-GEMM or BFU-E colonies at 14 days after treatment with KBU2046, from a single experiment in replicates of N=2. […] Values are the mean±SD of a single experiment, with similar results seen in a separate experiment, both in replicates of N=2.
Cell Migration Assays. Single cell motility assays were conducted by adding 10^4 cells to 35 mm tissue culture dishes (BD Falcon) coated with collagen I (BD Biosciences), incubating at 37° C. in 5% CO2, performing time-lapse imaging using a Biostation (Nikon Instruments), tracking the path of N≥35 cells using ImageJ software and the Manual Tracker plug-in, and using Chemotaxis and Migration Tool plug-in for data analysis.

Test [9] deals with PC3-M cells. Nature of the test: KBU2046-biotin labelling of cells (FITC-streptavidin). The test is classed as cell-based, human. Particulars: 1 μM KBU2046-biotin +/- 10 μM free KBU2046. As for the experimental part:
as §1

The next test concerns the target recombinant CSRP1 (Homo sapiens, UniProt P21291). Nature of the test: Pull down of recombinant CSRP1 by KBU2046-biotin. The test is classed as binding. How it is done: This yielded 3 proteins, shown in table, for an initial hit rate of 0.03%. Next, free KBU2046 was needed to inhibit binding by >75%. Of the two remaining candidates, isovaleryl-CoA dehydrogenase (ICD) was eliminated. […] Cysteine and glycine-rich protein 1 (CSRP1) was deemed the top protein, though its binding characteristics at 10 μM+free KBU2046 were similar to ICD, albeit not as extreme.

recombinant CSRP1, sequence (P21291 whole entry): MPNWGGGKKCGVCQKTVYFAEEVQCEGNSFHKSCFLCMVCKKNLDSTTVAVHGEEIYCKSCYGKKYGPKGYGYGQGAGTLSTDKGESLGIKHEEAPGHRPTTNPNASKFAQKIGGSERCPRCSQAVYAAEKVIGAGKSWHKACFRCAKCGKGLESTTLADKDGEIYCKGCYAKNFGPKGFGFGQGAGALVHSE

`CN[C@@H]1C[C@H]2O[C@@](C)([C@@H]1OC)n1c3ccccc3c3c4c(c5c6ccccc6n2c5c31)C(=O)NC4` [staurosporine, reference compound]: in test [1] (positive control), the “number of proteins bound at levels >/=10 fold above background” value is 214.
As for `O=c1c(-c2ccc(O)cc2)coc2cc(O)cc(O)c12` [genistein, 4′,5,7-trihydroxyisoflavone], the “effect on cell invasion” value in the test on PC3-M cells [2] is on record as “had anti-invasion efficacy”. The “changes in protein phosphorylation” value in test [3] is given as “induced widespread changes in protein phosphorylation”. For the same compound, in test [4], the “inhibition of human PCa cell invasion in vitro” value was “inhibit human prostate cancer (PCa) cell invasion in vitro”. Also, the inhibition of metastasis entry in test [5] was “inhibit”. Besides, the “inhibition of MKK4 kinase activity” value on MKK4 is on record as “inhibited the kinase activity”. Further, the “downstream phosphorylation of p38 MAPK and HSP27” value in test [6] is reported as “inhibiting downstream phosphorylation of p38 MAPK”. Further, the “MMP-2 expression in prostate tissue” value in test [7] was “downregulates matrix metalloproteinase 2 (MMP-2) expression in prostate tissue”.
Regarding `O=C(CCCC[C@@H]1SC[C@@H]2NC(=O)N[C@@H]21)NCCOCCOCCOCCOc1ccc2c(c1)OCC(c1ccc(F)cc1)C2=O` (stereo partly drawn) [KBU2046-biotin], the single cell motility entry in test [8] is reported as “biologically active”. In test [1], the “binding to HSP90β and CDC37 on the protein arrays” value was “not bound”; the “binding to protein arrays” value is on record as “lack of binding”. Besides, the initial hit rate in test [1] (0.5 and 10 μM) is 0.03%. Besides, the “number of proteins meeting binding criteria” value in [1] (0.5 and 10 μM, absence of free KBU2046) amounted to 3. Also, in the test on PC3-M cells [9], the labelling of cells result is “labels permeablized cells in a manner that can be competed off”. Besides, the “pull down of recombinant CSRP1” value on recombinant CSRP1 was “no evidence of such was observed”.
